Assays:
[1] = target: T1, HiBit-BRM fusion protein (Homo sapiens, UniProt P51531); assay: HiBiT-BRM cell-based degradation assay (Nano-Glo HiBiT Lytic Detection, 24 h); conditions: HeLa cells expressing HiBiT-BRM; for DC50: read-out: BRM HiBit Degradation IC50; for BRM HiBit Degradation Maximum measured: top dose 30 μM
T1 construct: expressed in transfected cells
How it was run: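 HeLa cells stably expressing HiBiT-BRM were dosed with compounds (10-point 3-fold dilutions, 30 μM final top dose, duplicate) for 24 h. HiBiT signal was read by lytic LgBiT complementation luminescence. Percent degradation was normalised to DMSO (high control) and 2 μM of a reference BRM/BRG1 degrader (low control).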

[2] = target: T2, HiBit-BRG1 fusion protein (Homo sapiens, UniProt P51532); assay: HiBiT-BRG1 cell-based degradation assay (Nano-Glo HiBiT Lytic Detection, 24 h); conditions: HeLa cells expressing HiBit-BRG1 and LgBit; for DC50: read-out: BRG1 HiBit Degradation IC50; for Dmax: HeLa, top dose 30 μM, read-out: BRG1 HiBit Degradation Maximum measured
T2 construct: expressed in transfected cells
T2 sequence (P51532 whole entry, the tested form may be a part): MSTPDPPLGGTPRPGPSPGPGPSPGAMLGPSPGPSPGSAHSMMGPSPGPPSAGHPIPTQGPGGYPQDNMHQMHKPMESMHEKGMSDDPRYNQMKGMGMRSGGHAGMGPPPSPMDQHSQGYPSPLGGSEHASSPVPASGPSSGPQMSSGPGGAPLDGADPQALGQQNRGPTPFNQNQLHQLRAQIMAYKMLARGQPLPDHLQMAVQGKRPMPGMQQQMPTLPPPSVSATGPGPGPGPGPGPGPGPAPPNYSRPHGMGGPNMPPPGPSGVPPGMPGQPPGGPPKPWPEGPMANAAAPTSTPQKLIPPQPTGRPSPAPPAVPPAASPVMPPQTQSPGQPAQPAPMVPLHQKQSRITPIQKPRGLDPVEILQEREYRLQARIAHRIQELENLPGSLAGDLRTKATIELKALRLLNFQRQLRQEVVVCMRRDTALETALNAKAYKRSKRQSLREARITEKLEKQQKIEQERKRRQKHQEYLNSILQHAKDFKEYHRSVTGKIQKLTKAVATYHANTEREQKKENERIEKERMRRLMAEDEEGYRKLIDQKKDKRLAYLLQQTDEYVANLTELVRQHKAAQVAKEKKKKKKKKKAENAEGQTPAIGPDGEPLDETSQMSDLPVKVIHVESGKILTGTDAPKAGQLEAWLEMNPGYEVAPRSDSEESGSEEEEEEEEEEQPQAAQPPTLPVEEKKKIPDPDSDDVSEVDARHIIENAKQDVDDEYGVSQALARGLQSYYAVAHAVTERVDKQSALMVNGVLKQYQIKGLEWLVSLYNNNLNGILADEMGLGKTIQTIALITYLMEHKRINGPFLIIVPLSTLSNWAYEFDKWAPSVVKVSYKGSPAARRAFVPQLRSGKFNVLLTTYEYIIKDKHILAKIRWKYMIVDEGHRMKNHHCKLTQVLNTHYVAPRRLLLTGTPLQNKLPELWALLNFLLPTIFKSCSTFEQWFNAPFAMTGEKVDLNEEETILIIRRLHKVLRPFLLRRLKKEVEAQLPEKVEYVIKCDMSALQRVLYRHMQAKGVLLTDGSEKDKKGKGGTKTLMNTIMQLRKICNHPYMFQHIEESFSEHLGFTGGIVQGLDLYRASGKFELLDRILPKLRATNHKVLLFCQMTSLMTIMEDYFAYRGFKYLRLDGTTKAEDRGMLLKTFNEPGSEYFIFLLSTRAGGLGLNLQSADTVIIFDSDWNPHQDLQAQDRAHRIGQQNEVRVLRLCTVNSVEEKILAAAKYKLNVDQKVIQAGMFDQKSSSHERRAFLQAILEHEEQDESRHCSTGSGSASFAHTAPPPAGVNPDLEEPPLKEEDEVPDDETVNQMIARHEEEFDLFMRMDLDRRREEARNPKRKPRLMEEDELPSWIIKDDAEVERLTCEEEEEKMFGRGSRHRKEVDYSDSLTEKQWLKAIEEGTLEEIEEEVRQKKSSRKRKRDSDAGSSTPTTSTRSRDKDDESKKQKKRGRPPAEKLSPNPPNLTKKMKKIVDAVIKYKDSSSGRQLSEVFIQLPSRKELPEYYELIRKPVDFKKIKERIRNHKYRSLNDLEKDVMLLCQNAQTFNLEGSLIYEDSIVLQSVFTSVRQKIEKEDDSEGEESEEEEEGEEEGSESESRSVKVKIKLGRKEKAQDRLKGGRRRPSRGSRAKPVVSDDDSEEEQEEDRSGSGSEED
How it was run: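 Stable HeLa line expressing HiBiT-BRG1 and LgBiT, seeded at 5000 cells/well; luminescence read after lytic Nano-Glo HiBiT reagent and 10 min shaking at RT. % degradation normalised between DMSO (high control) and 2 μM reference BRM/BRG1 degrader (low control).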

T1 sequence (P51531 whole entry, the tested form may be a part): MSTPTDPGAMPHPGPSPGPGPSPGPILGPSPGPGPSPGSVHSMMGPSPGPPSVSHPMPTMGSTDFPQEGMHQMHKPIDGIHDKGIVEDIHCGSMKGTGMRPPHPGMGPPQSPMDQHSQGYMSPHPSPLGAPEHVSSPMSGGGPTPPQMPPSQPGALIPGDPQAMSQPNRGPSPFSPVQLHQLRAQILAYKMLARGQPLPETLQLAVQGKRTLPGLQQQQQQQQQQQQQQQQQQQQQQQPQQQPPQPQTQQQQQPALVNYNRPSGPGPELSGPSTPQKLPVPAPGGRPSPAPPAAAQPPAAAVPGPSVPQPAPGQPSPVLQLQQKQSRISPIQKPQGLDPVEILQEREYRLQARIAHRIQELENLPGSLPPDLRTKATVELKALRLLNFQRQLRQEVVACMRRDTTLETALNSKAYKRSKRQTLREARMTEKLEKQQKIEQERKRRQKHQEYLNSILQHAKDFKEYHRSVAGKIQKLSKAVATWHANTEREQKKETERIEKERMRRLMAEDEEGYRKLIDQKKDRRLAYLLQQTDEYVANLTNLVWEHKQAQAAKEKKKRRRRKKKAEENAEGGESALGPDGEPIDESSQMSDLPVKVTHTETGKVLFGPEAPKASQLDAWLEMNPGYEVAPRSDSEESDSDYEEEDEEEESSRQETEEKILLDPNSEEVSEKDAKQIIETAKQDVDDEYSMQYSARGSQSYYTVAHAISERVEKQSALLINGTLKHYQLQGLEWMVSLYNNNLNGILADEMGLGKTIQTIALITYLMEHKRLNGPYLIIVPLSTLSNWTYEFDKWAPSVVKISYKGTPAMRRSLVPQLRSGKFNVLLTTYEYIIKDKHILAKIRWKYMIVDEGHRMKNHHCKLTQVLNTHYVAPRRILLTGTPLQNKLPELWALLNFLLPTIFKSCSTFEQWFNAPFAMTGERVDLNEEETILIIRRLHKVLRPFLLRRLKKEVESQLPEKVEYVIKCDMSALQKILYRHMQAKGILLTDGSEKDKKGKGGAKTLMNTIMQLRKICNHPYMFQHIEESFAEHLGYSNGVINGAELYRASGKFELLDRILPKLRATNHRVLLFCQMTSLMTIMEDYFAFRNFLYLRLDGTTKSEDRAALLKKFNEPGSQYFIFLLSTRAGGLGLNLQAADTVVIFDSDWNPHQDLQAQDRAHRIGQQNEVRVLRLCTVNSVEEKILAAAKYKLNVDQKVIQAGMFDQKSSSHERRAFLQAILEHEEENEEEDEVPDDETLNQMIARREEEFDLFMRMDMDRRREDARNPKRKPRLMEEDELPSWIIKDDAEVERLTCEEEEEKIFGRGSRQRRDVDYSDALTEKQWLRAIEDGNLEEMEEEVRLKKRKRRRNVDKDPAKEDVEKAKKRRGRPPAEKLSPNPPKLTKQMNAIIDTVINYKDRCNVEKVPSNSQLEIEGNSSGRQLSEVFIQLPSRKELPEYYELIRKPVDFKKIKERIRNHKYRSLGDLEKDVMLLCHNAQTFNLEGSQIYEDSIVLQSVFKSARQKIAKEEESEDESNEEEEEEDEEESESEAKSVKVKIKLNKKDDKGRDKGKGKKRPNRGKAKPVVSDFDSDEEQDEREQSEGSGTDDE

| DC50 [1] [µM] | BRM HiBit Degradation Maximum measured [1] | DC50 [2] [µM] | Dmax [2] [%] | Structure (SMILES) |
| --- | --- | --- | --- | --- |
| > 10 | C (‘C’ = Maximum degradation <50%) | > 10 | < 50 | Cc1cc(C(=O)NCC(=O)Nc2nc(-c3cccc(-c4ccnc(N(C)CC(=O)NCCCCCCCCNC(=O)COc5cccc6c5C(=O)N(C5CCC(=O)NC5=O)C6=O)c4)c3)cs2)cn1S(C)(=O)=O (centres unmarked) [Compound 131, N-(2-((4-(3-(2-((2-((8-(2-((2-(2,6-dioxopiperidin-3-yl)-1,3-dioxoisoindolin-4-yl)oxy)acetamido)octyl)amino)-2-oxoethyl)(methyl)amino)pyridin-4-yl)phenyl)thiazol-2-yl)amino)-2-oxoethyl)-5-methyl-1-(methylsulfonyl)-1H-pyrrole-3-carboxamide] |
| > 10 | C (‘C’ = Maximum degradation <50%) | > 10 | < 50 | CS(=O)(=O)n1ccc(C(=O)NCC(=O)Nc2nc(-c3cccc(-c4cccc(CNC(=O)CCCCOc5cccc6c5C(=O)N(C5CCC(=O)NC5=O)C6=O)c4)c3)cs2)c1 (centres unmarked) [Compound 57, N-(2-((4-(3′-((5-((2-(2,6-dioxopiperidin-3-yl)-1,3-dioxoisoindolin-4-yl)oxy)pentanamido)methyl)-[1,1′-biphenyl]-3-yl)thiazol-2-yl)amino)-2-oxoethyl)-1-(methylsulfonyl)-1H-pyrrole-3-carboxamide] |
| > 10 | C (‘C’ = Maximum degradation <50%) | > 10 | < 50 | CS(=O)(=O)n1ccc(C(=O)N[C@@H](COCc2ccc(C(=O)N3CCC4(CC3)CC(Oc3ccc5c(c3)C(=O)N(C3CCC(=O)NC3=O)C5=O)C4)cc2)C(=O)Nc2nc(-c3ccccc3)cs2)c1 (stereo partly drawn) [Compound 199, (2S)-3-[[4-(2-[[2-(2,6-dioxopiperidin-3-yl)-1,3-dioxoisoindol-5-yl]oxy]-7-azaspiro[3.5]nonane-7-carbonyl)phenyl]methoxy]-2-[(1-methanesulfonylpyrrol-3-yl)formamido]-N-(4-phenyl-1,3-thiazol-2-yl)propanamide] |
| 0.1 to 1 | A (‘A’ = Maximum degradation >75%) | < 0.1 | > 75 | CS(=O)(=O)n1ccc(C(=O)NCC(=O)Nc2nc(-c3cccc(-c4ccnc(C5(C(=O)N6CCN(CC7CCN(c8ccc9c(c8)C(=O)N(C8CCC(=O)NC8=O)C9=O)CC7)CC6)CC5)c4)c3)cs2)c1 (centres unmarked) [Compound 134, N-[4-[3-(2-[1-[4-([1-[2-(2,6-dioxopiperidin-3-yl)-1,3-dioxoisoindol-5-yl]piperidin-4-yl]methyl)piperazine-1-carbonyl]cyclopropyl]pyridin-4-yl)phenyl]-1,3-thiazol-2-yl]-2-[(1-methanesulfonylpyrrol-3-yl)formamido]acetamide] |
| < 0.1 | A (‘A’ = Maximum degradation >75%) | < 0.1 | > 75 | CS(=O)(=O)n1ccc(C(=O)NCC(=O)Nc2nc(-c3cccc(-c4ccnc(C5(C(=O)NC6CCN(CCOc7ccc8c(c7)C(=O)N(C7CCC(=O)NC7=O)C8=O)CC6)CC5)c4)c3)cs2)c1 (centres unmarked) [Compound 113] |
| > 10 | C (‘C’ = Maximum degradation <50%) | > 10 | < 50 | Cc1ncsc1-c1ccc(CNC(=O)[C@@H]2C[C@@H](O)CN2C(=O)[C@@H](NC(=O)CCC(=O)N2CCN(c3cc(-c4cccc(-c5csc(NC(=O)CNC(=O)c6ccn(S(C)(=O)=O)c6)n5)c4)ccn3)CC2)C(C)(C)C)cc1 [Compound 74, N-[2-[[4-[3-[2-[4-[4-[[(1S)-1-[(2S,4R)-4-hydroxy-2-[[4-(4-methylthiazol-5-yl)phenyl]methylcarbamoyl]pyrrolidine-1-carbonyl]-2,2-dimethyl-propyl]amino]-4-oxo-butanoyl]piperazin-1-yl]-4-pyridyl]phenyl]thiazol-2-yl]amino]-2-oxo-ethyl]-1-methylsulfonyl-pyrrole-3-carboxamide] |
| > 10 | C (‘C’ = Maximum degradation <50%) | > 10 | < 50 | CS(=O)(=O)n1ccc(C(=O)N[C@@H](COCc2ccc(C(=O)N3CC(COc4cccc5c4C(=O)N(C4CCC(=O)NC4=O)C5=O)C3)cc2)C(=O)Nc2nc(-c3ccccc3)cs2)c1 (stereo partly drawn) [Compound 197, (2S)-3-([4-[3-([[2-(2,6-dioxopiperidin-3-yl)-1,3-dioxoisoindol-4-yl]oxy]methyl)azetidine-1-carbonyl]phenyl]methoxy)-2-[(1-methanesulfonylpyrrol-3-yl)formamido]-N-(4-phenyl-1,3-thiazol-2-yl)propanamide] |
| > 10 | C (‘C’ = Maximum degradation <50%) | > 10 | < 50 | CS(=O)(=O)n1ccc(C(=O)N[C@@H](CCOCCCC(=O)NCCOC2CN(c3ccc4c(c3)C(=O)N(C3CCC(=O)NC3=O)C4=O)C2)C(=O)Nc2nc(-c3ccccc3)cs2)c1 (stereo partly drawn) [Compound 278, (2S)-4-(3-[[2-([1-[2-(2,6-dioxopiperidin-3-yl)-1,3-dioxoisoindol-5-yl]azetidin-3-yl]oxy)ethyl]carbamoyl]propoxy)-2-[(1-methanesulfonylpyrrol-3-yl)formamido]-N-(4-phenyl-1,3-thiazol-2-yl)-butanemide] |
| > 10 | C (‘C’ = Maximum degradation <50%) | > 10 | < 50 | Cc1c(C(=O)NCC(=O)Nc2nc(-c3cccc(-c4ccnc(N(C)CC(=O)NCCCCCCCCNC(=O)COc5cccc6c5C(=O)N(C5CCC(=O)NC5=O)C6=O)c4)c3)cs2)cn(S(C)(=O)=O)c1C (centres unmarked) [Compound 41, N-[2-[[4-[3-[2-[[2-[8-[[2-[2-(2,6-dioxo-3-piperidyl)-1,3-dioxo-isoindolin-4-yl]oxyacetyl]amino]octylamino]-2-oxo-ethyl]-methyl-amino]-4-pyridyl]phenyl]thiazol-2-yl]amino]-2-oxo-ethyl]-4,5-dimethyl-1-methylsulfonyl-pyrrole-3-carboxamide] |
| > 10 | C (‘C’ = Maximum degradation <50%) | > 10 | < 50 | CS(=O)(=O)n1ccc(C(=O)N[C@@H](CCOCCCC(=O)NCCCCCNc2ccc3c(c2)C(=O)N(C2CCC(=O)NC2=O)C3=O)C(=O)Nc2nc(-c3ccccc3)cs2)c1 (stereo partly drawn) [Compound 287, (2S)-4-[3-[(5-[[2-(2,6-dioxopiperidin-3-yl)-1,3-dioxoisoindol-5-yl]amino]pentyl)carbamoyl]propoxy]-2-[(1-methanesulfonylpyrrol-3-yl)formamido]-N-(4-phenyl-1,3-thiazol-2-yl)butanamide] |
| > 10 | C (‘C’ = Maximum degradation <50%) | > 10 | < 50 | Cc1ncsc1-c1ccc(CNC(=O)[C@@H]2C[C@@H](O)CN2C(=O)[C@@H](NC(=O)CCC(=O)NCc2cccc(-c3cccc(-c4csc(NC(=O)CNC(=O)c5ccn(S(C)(=O)=O)c5)n4)c3)c2)C(C)(C)C)cc1 [Compound 63, N1-((S)-1-((2S,4R)-4-hydroxy-2-((4-(4-methylthiazol-5-yl)benzyl)carbamoyl)pyrrolidin-1-yl)-3,3-dimethyl-1-oxobutan-2-yl)-N4-((3′-(2-(2-(1-(methylsulfonyl)-1H-pyrrole-3-carboxamido)acetamido)thiazol-4-yl)-[1,1′-biphenyl]-3-yl)methyl)succinamide] |

| Structure (SMILES) | DC50 [1] [µM] | BRM HiBit Degradation Maximum measured [1] | DC50 [2] [µM] | Dmax [2] [%] |
| --- | --- | --- | --- | --- |
| CS(=O)(=O)n1ccc(C(=O)N[C@@H](CCOCCCC(=O)N2CC(COc3cccc4c3C(=O)N(C3CCC(=O)NC3=O)C4=O)C2)C(=O)Nc2nc(-c3ccccc3)cs2)c1 (stereo partly drawn) [Compound 259, (2S)-4-[4-[3-([[2-(2,6-dioxopiperidin-3-yl)-1,3-dioxoisoindol-4-yl]oxy]methyl)azetidin-1-yl]-4-oxobutoxy]-2-[(1-methanesulfonylpyrrol-3-yl)formamido]-N-(4-phenyl-1,3-thiazol-2-yl)butanamide] | > 10 | C (‘C’ = Maximum degradation <50%) | > 10 | < 50 |
| CS(=O)(=O)n1ccc(C(=O)N[C@@H](COCc2ccc(CNC(=O)CCCCCCCOc3cccc4c3C(=O)N(C3CCC(=O)NC3=O)C4=O)cc2)C(=O)Nc2nc(-c3ccccc3)cs2)c1 (stereo partly drawn) [Compound 213, 8-[[2-(2,6-dioxopiperidin-3-yl)-1,3-dioxoisoindol-4-yl]oxy]-N-[(4-[[(2S)-2-[(1-methanesulfonylpyrrol-3-yl)formamido]-2-[(4-phenyl-1,3-thiazol-2-yl)carbamoyl]ethoxy]methyl]phenyl)methyl]octanamide] | 0.1 to 1 | B (‘B’ = Maximum degradation ≥50% and ≤75%) | 0.1 to 1 | 50 to 75 |
| CS(=O)(=O)n1ccc(C(=O)N[C@@H](CCOCCCC(=O)N2CCN(CCCOc3ccc4c(c3)C(=O)N(C3CCC(=O)NC3=O)C4=O)CC2)C(=O)Nc2nc(-c3ccccc3)cs2)c1 (stereo partly drawn) [Compound 255, (2S)-4-[4-[4-(3-[[2-(2,6-dioxopiperidin-3-yl)-1,3-dioxoisoindol-5-yl]oxy]propyl)piperazin-1-yl]-4-oxobutoxy]-2-[(1-methanesulfonylpyrrol-3-yl)formamido]-N-(4-phenyl-1,3-thiazol-2-yl)butanamide] | > 10 | C (‘C’ = Maximum degradation <50%) | > 10 | < 50 |

Reference: US12662479B2 (Foghorn Therapeutics Inc., priority 2020, dated 2026)
